Common to all, as to type: biochemical
One experiment deals with T1, Sirt4 (Homo sapiens, UniProt Q9Y6E7).
T1 construct: made in house; host or cells: E. coli BL21 (DE3)
T1 sequence (Q9Y6E7 29-314): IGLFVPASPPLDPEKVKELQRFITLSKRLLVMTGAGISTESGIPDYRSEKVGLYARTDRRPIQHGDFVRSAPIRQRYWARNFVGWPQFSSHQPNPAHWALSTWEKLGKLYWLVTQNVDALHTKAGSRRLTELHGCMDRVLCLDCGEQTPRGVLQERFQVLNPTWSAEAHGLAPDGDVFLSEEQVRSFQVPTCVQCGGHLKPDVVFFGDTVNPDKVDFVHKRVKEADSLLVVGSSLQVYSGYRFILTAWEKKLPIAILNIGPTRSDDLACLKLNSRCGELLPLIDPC
In words: Continuous fluorescence assay, substrate kinetics. Particulars: Sirt4 1000 nM; fluorescence spectrophotometer (footnote a). How it is done: The fluorescence measurements were performed on a Hitachi F-4500 fluorescence spectrophotometer (Tokyo, Japan) at λEx = 310 nm and λEm = 405 nm (slitEx = 5 nm, slitEm = 2.5 nm, PMT = 700 V for 3, 4 and 5 as well as slitEx = 10 nm, slitEm = 10 nm, PMT = 950 V for 4a). Each reaction mixture contained assay-buffer, 0.5 mM NAD^+ and various peptide concentrations (0.1–100 μM) and was preincubated for 5 minutes at 37 °C. […] Product formation could be monitored by increase of relative fluorescence. This signal was converted into product concentration via calibration lines. The slope of the linear regression of product formation against time yielded the reaction velocity rates in μM/s. […] The reaction mixture was analyzed with HPLC, to control if the entire peptide substrate was turned to product. Additionally the mixture was diluted (0.1–25 μM) and measured with Hitachi F-4500 fluorescence spectrophotometer at the same conditions as described above.
(§1) The microtiter plate fluorescence measurements were performed on a Tecan Infinite M200 microplate reader (Maennedorf, Switzerland) at λEx = 320 nm and λEm = 408 nm (lag time 9 μs, integration time […], gain 160, 170 or 182). The reactions (total volume 100 μl) were measured in black low-binding 96-well microtiter plates (NUNC). […] The reaction mixture for the calibration lines was prepared as described for the single fluorescence measurements. […]

The target of experiment [1] is T2, Sirt3 (Homo sapiens, UniProt Q9NTG7).
T2 construct: made in house
T2 sequence (Q9NTG7 1-399): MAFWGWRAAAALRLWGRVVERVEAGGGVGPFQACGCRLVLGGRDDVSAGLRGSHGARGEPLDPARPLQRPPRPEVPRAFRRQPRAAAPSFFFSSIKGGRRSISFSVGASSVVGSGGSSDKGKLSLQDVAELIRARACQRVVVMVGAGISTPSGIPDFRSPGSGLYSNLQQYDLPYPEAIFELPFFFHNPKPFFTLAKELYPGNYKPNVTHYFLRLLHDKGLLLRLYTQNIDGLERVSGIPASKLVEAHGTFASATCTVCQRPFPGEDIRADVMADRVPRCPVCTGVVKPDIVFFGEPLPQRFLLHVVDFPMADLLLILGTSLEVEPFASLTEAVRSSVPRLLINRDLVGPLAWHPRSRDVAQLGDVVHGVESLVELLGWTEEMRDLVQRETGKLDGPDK
In words: Continuous fluorescence assay, substrate kinetics. As to conditions: Sirt3 100 nM; fluorescence spectrophotometer (footnote a). As for the experimental part:
(§2) The fluorescence measurements were performed on a Hitachi F-4500 fluorescence spectrophotometer (Tokyo, Japan) at λEx = 310 nm and λEm = 405 nm (slitEx = 5 nm, slitEm = 2.5 nm, PMT = 700 V for 3, 4 and 5 as well as slitEx = 10 nm, slitEm = 10 nm, PMT = 950 V for 4a). Each reaction mixture contained assay-buffer, 0.5 mM NAD^+ and various peptide concentrations (0.1–100 μM) and was preincubated for 5 minutes at 37 °C. The reaction was started by adding human sirtuin (0.1–0.5 μM) and observed for 5–10 minutes. Product formation could be monitored by increase of relative fluorescence. This signal was converted into product concentration via calibration lines. […] The reaction mixture was analyzed with HPLC, to control if the entire peptide substrate was turned to product. Additionally the mixture was diluted (0.1–25 μM) and measured with Hitachi F-4500 fluorescence spectrophotometer at the same conditions as described above.
as §1

For the next experiment, the target named is T3, Sirt5 (Homo sapiens, UniProt Q9NXA8).
T3 construct: made in house
T3 sequence (Q9NXA8 37-310): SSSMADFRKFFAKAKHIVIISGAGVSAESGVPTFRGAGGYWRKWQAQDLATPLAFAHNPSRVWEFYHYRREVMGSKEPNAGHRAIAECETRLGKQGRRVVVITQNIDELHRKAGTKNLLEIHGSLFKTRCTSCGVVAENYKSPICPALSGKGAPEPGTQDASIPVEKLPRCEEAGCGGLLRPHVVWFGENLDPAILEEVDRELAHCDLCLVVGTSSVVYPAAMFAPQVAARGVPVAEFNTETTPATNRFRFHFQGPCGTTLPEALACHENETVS
Briefly: Continuous fluorescence assay, substrate kinetics. As to conditions: Sirt5 500 nM; MTP fluorescence reader (footnote b). As for the experimental part: as §2, §1

For experiment [2], the target named is T4, Sirt6 (Homo sapiens, UniProt Q8N6T7).
T4 construct: His-tag; made in house; host or cells: E. coli BL21 DE3
T4 sequence (Q8N6T7 whole entry): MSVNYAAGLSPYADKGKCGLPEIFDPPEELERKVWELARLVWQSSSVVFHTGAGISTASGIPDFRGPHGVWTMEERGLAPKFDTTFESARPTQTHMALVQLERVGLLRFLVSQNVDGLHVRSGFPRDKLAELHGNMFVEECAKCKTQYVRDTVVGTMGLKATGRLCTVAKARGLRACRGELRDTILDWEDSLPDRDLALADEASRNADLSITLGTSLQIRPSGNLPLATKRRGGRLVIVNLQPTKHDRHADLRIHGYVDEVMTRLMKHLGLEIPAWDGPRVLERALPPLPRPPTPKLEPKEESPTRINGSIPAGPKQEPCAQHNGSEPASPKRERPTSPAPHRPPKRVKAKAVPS
In words: Ki determination with substrate 3, 96-well MTP fluorescence reader. Particulars: Sirt6 0.5 µM; varying substrate 3, 500 µM NAD+ (saturating). As for the experimental part: (§3) All measurements were done in duplicates.
(§4) Supplementary Figure S13. […] Data are presented as mean ± s.d. (n=2) and lines represent the Michaelis-Menten-plot (left) and secondary plots (right). The apparent KM or Vmax^app-1 values from v/[S] characteristics were plotted against the corresponding inhibitor concentration.
Supplementary Figure S14. […] The reactions were performed with 0.5 µM Sirt6 and either 500 µM NAD^+ and varying concentrations of 3 (2-100 µM). […] Data are presented as mean ± s.d. (n=2) and lines represent the Michaelis-Menten-plot (left) and secondary plots (right). The apparent Vmax^app-1 values from v/[S] characteristics were plotted against the corresponding inhibitor concentration.
(§5) Supplementary Figure S15. Kinetic characteristics for sirtuin inhibitor 8. The reactions were performed with 0.01 µM Sirt2 /0.1 µM Sirt3 /0.5 µM Sirt6 and 500 µM NAD^+ and varying concentrations of 3 (0.07-100 µM). […] Data are presented as mean ± s.d. (n=2) and lines represent the Michaelis-Menten-plot (left) and secondary plots (right). The apparent Vmax^app-1 values from v/[S] characteristics were plotted against the corresponding inhibitor concentration.

For experiment [3], the target named is T4, Sirt6. Briefly: Isomer specific inhibition by thioxo peptides, HPLC. Particulars: substrate 2a, 30 min, 20 °C. As for the experimental part:
After 30 min incubation at 20 °C reaction was stopped using 10% TFA solution. Inhibitor solutions were irradiated at 254 nm for 5 min. Separated isomers were applied in concentrations from 1 to 10 μM. The influence of cis content on sirtuin inhibition using fluorescence spectrometer was determined with 500 μM NAD^+, 5 μM 3, 0.1 μM Sirt2 and 0.1 μM 9. Reactions were done at 20 °C with 9 in GS and PSS (after 5 min irradiation at 254 nm). 9 in PSS was applied immediately after irradiation (transfer time ~5 s) and started directly by adding sirtuin. Reactions were measured within 1 min to avoid re-isomerization.
Supplementary Figure S36. Determination of IC50 value of 8 for Sirt6 in GS (?) and PSS (π). Data were fitted with U(%) = Umin(%) + (Umax(%) – Umin(%))/(1+10^(x-logIC50)) with U(%) percental turmover of substrate 2a; Umin(%) lowest turnover of substrate; Umax(%) maximal turnover of substrate (n=3).
Supplementary Figure S37. Inhibition of Sirt6 by 8 (?) and 9 (π).Data were fitted with U(%) = Umin(%) + (Umax(%) – Umin(%))/(1+10^(x-logIC50)) with U(%) percental turmover of substrate; Umin(%) lowest turnover of substrate 2a; Umax(%) maximal turnover of substrate (n=3).
Supplementary Figure S38. Determination of IC50 of 9 for Sirt6 with 72.4 % cis- (π) and 70.3 % (?) trans-content. Measurements were done with 10 µM peptide substrate (big figure) or 30 µM (small figure). Data were fitted with U(%) = Umin(%) + (Umax(%) – Umin(%))/(1+10^(x-logIC50)) with U(%) percental turmover of substrate 2a; Umin(%) lowest turnover of substrate; Umax(%) maximal turnover of substrate (n=3).

The target of experiment [4] is T2, Sirt3. Briefly: Ki determination with substrate 3, 96-well MTP fluorescence reader. Particulars: Sirt3 0.1 µM; varying substrate 3, 500 µM NAD+ (saturating). As for the experimental part:
as §3, §4, §5

The target of the next experiment is T5, Sirt2 (Homo sapiens, UniProt Q8IXJ6).
T5 construct: made in house
T5 sequence (Q8IXJ6 1-389): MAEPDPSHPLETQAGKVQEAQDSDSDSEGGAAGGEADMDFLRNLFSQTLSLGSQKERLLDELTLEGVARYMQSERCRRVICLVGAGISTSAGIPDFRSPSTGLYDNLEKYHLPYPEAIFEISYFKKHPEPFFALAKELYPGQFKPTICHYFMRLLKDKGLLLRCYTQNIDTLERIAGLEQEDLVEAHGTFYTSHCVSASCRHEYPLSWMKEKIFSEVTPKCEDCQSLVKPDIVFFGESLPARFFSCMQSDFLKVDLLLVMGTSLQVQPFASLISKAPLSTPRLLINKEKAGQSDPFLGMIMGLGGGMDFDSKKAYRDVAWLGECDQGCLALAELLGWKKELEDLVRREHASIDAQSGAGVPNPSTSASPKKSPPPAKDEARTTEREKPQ
Described as above. As to conditions: Sirt2 0.01 µM; varying substrate 3, 500 µM NAD+; read-out: Ki (3). How it is done:
The microtiter plate fluorescence measurements were performed on a Tecan Infinite M200 microplate reader (Maennedorf, Switzerland) at λEx = 320 nm and λEm = 408 nm (lag time 9 μs, integration time […], gain 160, 170 or 182). The reactions (total volume 100 μl) were measured in black low-binding 96-well microtiter plates (NUNC). Assay-buffer, 500 μM NAD^+ and 0.07–200 μM peptide substrate were pre-incubated at 37 °C for 5 min. The reaction was started by adding human sirtuin (0.01–0.5 μM). The signals were converted into product concentration via calibration lines and the resulting data were evaluated as described above (single fluorescence measurement). The determination for the kinetic constants of NAD^+ was performed in the same way, except that the peptide concentration was fixed (5, 25 or 200 μM) and the NAD^+ concentration was varied (10–1500 μM). All measurements were done in duplicates. The reaction mixture for the calibration lines was prepared as described for the single fluorescence measurements. […] The resulting plots were analyzed by a competitive inhibition and non-competitive inhibition model using the program Sigma Plot 8. The linear regression of the apparent KM-values against the corresponding inhibitor concentration yielded the inhibitor constant Ki for competitive inhibition. The Ki for non-competitive inhibition was determined by linear regression of 1/apparent Vmax against the corresponding inhibitor concentration. The negative Ki value can be determined as intersection with the X-axis from these plots.
Supplementary Figure S15. Kinetic characteristics for sirtuin inhibitor 8. The reactions were performed with 0.01 µM Sirt2 /0.1 µM Sirt3 /0.5 µM Sirt6 and 500 µM NAD^+ and varying concentrations of 3 (0.07-100 µM). […] The negative Ki value can be determined as intersection with the X-axis from the Vmax^app-1/I plot.
Supplementary Figure S16. […] The negative Ki value can be determined as intersection with the X-axis from the Vmax^app-1/I plot.
Supplementary Figure S17. […] The negative Ki value can be determined as intersection with the X-axis from the Vmax^app-1/I plot.

Non-standard residues stand in square brackets, D forms with d. Residues, ends and D or L forms follow the SMILES beside them. Groups on a side chain read outwards from the residue. Lys(thiomyristoyl) = CCCCCCCCCCCCCC(=S)NCCCC[C@H](N)C(=O)O; Tyr(3-NO2) = N[C@@H](Cc1ccc(O)c([N+](=O)[O-])c1)C(=O)O; Aun = NCCCCCCCCCCC(=O)O; 2Abz = Nc1ccccc1C(=O)O

As usually defined, the Km is the substrate concentration at which the rate is half of its maximum. Take `CC(=O)N[C@@H](CCC(=O)O)C(=O)N[C@@H](C)C(=O)N[C@@H](CC(C)C)C(=O)N1CCC[C@H]1C(=O)N[C@@H](CCCCN)C(=O)N[C@@H](CCCCNC(=O)CCCCCCCCCCNC(=O)c1ccccc1N)C(=O)N[C@@H](Cc1ccc(O)c([N+](=O)[O-])c1)C(=O)NCC(=O)NCC(N)=O` [peptide 3] (Ac-EALPKK([Aun-2Abz])[Tyr(3-NO2)]GG-NH2): the figures for the Michaelis-Menten constant (Km) at Sirt4, at Sirt3 [1] and at Sirt5 were 49.5 ± 7.5 µM, 3.3 ± 0.4 µM and 46.1 ± 7.2 µM, respectively.

As a reminder, the Ki is the equilibrium dissociation constant of an inhibitor or competing ligand from its target. The term IC50 denotes the concentration needed to halve the response being measured. Take `CCCCCCCCCCCCCC(=S)NCCCC[C@H](NC(=O)[C@H](CCCCN)NC(=O)[C@@H]1CCCN1C(=O)[C@H](CC(C)C)NC(=O)[C@H](C)NC(=O)[C@H](CCC(=O)O)NC(C)=O)C(=O)N[C@H](C(=O)NCC(=O)NCC(N)=O)[C@@H](C)O` [peptide 8] (Ac-EALPK[Lys(thiomyristoyl)]TGG-NH2): the values for the Ki on Sirt6 [2], on Sirt3 [4] and at Sirt2 were 400 ± 100 nM, 100 ± 20 nM and 80 ± 20 nM, respectively. Further, the 50% inhibitory concentration (IC50) is 1060 ± 120 nM against Sirt6 [3] (inhibitor with 2.5% cis isomer (ground state)) and 1870 ± 180 nM against Sirt6 [3] (inhibitor with 25% cis isomer (photo-excited state)).

(Values after article PMC4778124, “A continuous sirtuin activity assay without any coupling to enzymatic or chemical reactions” (Scientific Reports, 2016).)
